Read-outs that look alike come from different tables or passages of the source.
Biological target: T1, Human pyruvate kinase R (PKR) (Homo sapiens, UniProt P30613)
T1 construct: Human pyruvate kinase R (PKR), residues 14-574; 6xHis-8xArg-SUMO (N, cleaved yes); host or cells: E. coli
Experiment: Biochemical assay for activation of pyruvate kinase R (Kinase-Glo luminescence, ATP generation)
Details: for Emax: read-out: PKR % activation, maximal activation level achieved with each compound relative to the activation level achieved by AG-348 @ 10 μM; for PKR % activation: maximal activation level achieved with each compound relative to the activation level achieved by AG-348 @ 10 μM
Protocol: Human pyruvate kinase R (PKR), residues 14-574, and human pyruvate kinase M2, residues 1-531, were cloned into expression plasmids and obtained from ATUM Bio (Newark, Calif.). Proteins were translated as fusions with 6×-His,8×-Arg, and SUMO at the N-terminus. A third construct of human PKR was truncated, residues 50-574, and similarly cloned for use in crystallography experiments. All proteins were cloned, expressed in E. coli, and purified using similar protocols. Cells were grown at 30° C. in Luria-Bertani broth supplemented with 0.4% glucose to OD600=0.8 and induced with 0.4 mM IPTG at 16° C. for 18 hours. Cells were harvested by centrifugation, resuspended in 50 mM potassium phosphate pH 8.0, 500 mM NaCl, 25 mM imidazole pH 8.0, and 3 mM β-mercaptoethanol. Cells were lysed using a LM20 microfluidizer from Microfluidics (Westwood, Mass.). The crude lysate was immediately supplemented with 0.2 mM phenylmethylsulfonyl fluoride (PMSF) and centrifuged at 20,000 g for 20 minutes. The soluble fraction was subsequently incubated with 2 mL Ni-NTA (GE Healthcare) per 1,000 ODs for 1 hour at 4° C. Following incubation with the Ni-NTA resin, lysate was removed by pelleting resin at 2,500 g for 3 minutes and washed 3 times with 9 bed volumes of 50 mM potassium phosphate pH 8.0, 500 mM NaCl, 25 mM imidazole, and 3 mM β-mercaptoethanol. Following the batch wash Ni-NTA resin was loaded onto a gravity column and His-tagged protein was eluted with 6 bed volumes of 10 mM Tris/HCl pH 8.0, 200 mM NaCl, 500 mM imidazole, and 3 mM β-mercaptoethanol. Eluted protein was dialyzed overnight against 10 mM Tris/HCl pH 8.0, 200 mM NaCl, and 1 mM DTT and the 6×-His-8×-Arg-SUMO-tag was cleaved using a 20:1 molar ratio of protein: 3C protease. The protein was purified by anion exchange chromatography on a HiTrapQ or MonoQ 10/100 GL column (GE Healthcare) via a linear NaCl gradient and twice by size exclusion chromatography using a Superdex S200 26/60 column (GE Healthcare) run in 10 mM Tris/HCl pH 8.0, 200 mM NaCl, 10 mM MgCl2, 1 mM DTT. Proteins were concentrated to −12 mg/mL for crystallization and flash frozen for storage.
Biochemical assay for Activation of Pyruvate Kinase R
Activation of pyruvate kinase R (PKR) and pyruvate kinase M2 (PKM2) were measured using a luminescence based measurement of ATP generation and the Kinase-Glo luminescent kinase reagent kit.

[1] = PKR AC50 (nM), 0.1 nM PKR, 0.3 mM ADP, 0.1 mM PEP, 1% DMSO

T1 sequence (P30613 14-574): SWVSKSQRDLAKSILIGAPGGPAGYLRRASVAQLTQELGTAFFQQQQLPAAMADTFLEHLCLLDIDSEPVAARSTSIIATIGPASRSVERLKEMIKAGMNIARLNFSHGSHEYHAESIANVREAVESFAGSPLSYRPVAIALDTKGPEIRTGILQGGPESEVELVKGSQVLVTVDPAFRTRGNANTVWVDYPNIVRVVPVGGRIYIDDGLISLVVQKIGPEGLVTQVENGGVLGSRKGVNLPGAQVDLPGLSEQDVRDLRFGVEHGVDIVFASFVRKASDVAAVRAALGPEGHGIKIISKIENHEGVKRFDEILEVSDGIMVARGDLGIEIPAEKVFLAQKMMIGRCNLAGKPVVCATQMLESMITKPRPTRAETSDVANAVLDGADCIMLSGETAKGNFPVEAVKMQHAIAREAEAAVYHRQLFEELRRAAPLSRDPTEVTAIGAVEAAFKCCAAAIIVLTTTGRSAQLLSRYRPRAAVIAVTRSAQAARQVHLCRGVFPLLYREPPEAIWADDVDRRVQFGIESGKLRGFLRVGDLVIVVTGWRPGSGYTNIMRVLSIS

AC50	Emax	AC50 [1]	PKR % activation	Structure (SMILES)
120 nM	90%	–	–	O=C([C@@H](O)c1ncccc1F)N1Cc2cn(S(=O)(=O)c3cnn(CC(F)F)c3)nc2C1 (single isomer, unassigned) [Compound 39]
–	53%	81 nM	–	O=C([C@H](O)c1ccccc1F)N1Cc2cn(S(=O)(=O)c3cnn(CC(F)(F)F)c3)nc2C1 (single isomer, unassigned) [Compound 40]
11 nM	86%	–	–	C[C@H](O)[C@@H](C(=O)N1Cc2cn(S(=O)(=O)c3cnn(CC(F)F)c3)nc2C1)c1ccccc1 [Compound 6, (2S,3S)-1-(2-{[1-(2,2-difluoroethyl)-1H-pyrazol-4-yl]sulfonyl}-2H,4H,5H,6H-pyrrolo[3,4-c]pyrazol-5-yl)-3-hydroxy-2-phenylbutan-1-one]
–	42%	110 nM	–	O=C(N1Cc2cn(S(=O)(=O)c3ccn(CC(F)(F)F)n3)nc2C1)C1(c2ncccc2Cl)COC1 [Compound 65, (3-(3-chloropyridin-2-yl)oxetan-3-yl)(2-((1-(2,2,2-trifluoroethyl)-1H-pyrazol-3-yl)sulfonyl)-2,6-dihydropyrrolo[3,4-c]pyrazol-5(4H)-yl)methanone]
–	–	3400 nM	40%	O=C([C@H](O)c1ccccc1F)N1Cc2cn(S(=O)(=O)c3cnn(CC(F)(F)F)c3)nc2C1 (single isomer, unassigned) [Compound 41]
–	93%	64 nM	–	O=C([C@H](CO)c1ccccc1)N1Cc2cn(S(=O)(=O)c3cn(CC(F)F)cn3)nc2C1 [Compound 24, (2S)-1-(2-{[1-(2,2-difluoroethyl)-1H-imidazol-4-yl]sulfonyl}-2H,4H,5H,6H-pyrrolo[3,4-c]pyrazol-5-yl)-3-hydroxy-2-phenylpropan-1-one]
–	–	1.1 nM	0%	O=C([C@H](OCCO)c1ccccc1F)N1Cc2cn(S(=O)(=O)c3ccn(CC(F)(F)F)n3)nc2C1 (single isomer, unassigned) [Compound 86]
24 nM	47%	–	–	O=C([C@H](CO)c1ccccc1)N1Cc2cn(S(=O)(=O)c3cnn(C4CCOC4)c3)nc2C1 (stereo partly drawn) [Compound 113, (2S)-3-hydroxy-1-(2-{[1-(oxolan-3-yl)-1H-pyrazol-4-yl]sulfonyl}-2H,4H,5H,6H-pyrrolo[3,4-c]pyrazol-5-yl)-2-phenylpropan-1-one]
–	67%	74 nM	–	CCc1ccccc1[C@@H](CO)C(=O)N1Cc2cn(S(=O)(=O)c3cnn(CC(F)F)c3)nc2C1 [Compound 105, (S)-1-(2-((1-(2,2-difluoroethyl)-1H-pyrazol-4-yl)sulfonyl)-2,6-dihydropyrrolo[3,4-c]pyrazol-5(4H)-yl)-2-(2-ethylphenyl)-3-hydroxypropan-1-one]
–	0%	1000 nM	–	Cc1nc(OCC(F)(F)F)sc1S(=O)(=O)n1cc2c(n1)CN(C(=O)[C@H](CO)c1ccccc1)C2 [Compound 22, (2S)-3-hydroxy-1-(2-{[4-methyl-2-(2,2,2-trifluoroethoxy)-1,3-thiazol-5-yl]sulfonyl}-2H,4H,5H,6H-pyrrolo[3,4-c]pyrazol-5-yl)-2-phenylpropan-1-one]
–	42%	1600 nM	–	CCn1ncc(S(=O)(=O)n2cc3c(n2)CN(C(=O)[C@H](CO)c2ccccc2)C3)c1C(F)(F)F [Compound 111, (2S)-1-{2-[1-ethyl-5-(trifluoromethyl)pyrazol-4-ylsulfonyl]-4H,6H-pyrrolo[3,4-c]pyrazol-5-yl}-3-hydroxy-2-phenylpropan-1-one]
–	4%	15 nM	–	Cc1cn(CC(F)(F)F)nc1S(=O)(=O)n1cc2c(n1)CN(C(=O)[C@@H](CO)c1ccccc1F)C2 [Compound 69, (2R)-2-(2-fluorophenyl)-3-hydroxy-1-{2-[4-methyl-1-(2,2,2-trifluoroethyl)pyrazol-3-ylsulfonyl]-4H,6H-pyrrolo[3,4-c]pyrazol-5-yl}propan-1-one]
380 nM	126%	–	–	Cc1c(S(=O)(=O)n2cc3c(n2)CN(C(=O)[C@@H](CO)c2ccccc2F)C3)cnn1CC(F)F [Compound 100, (R)-1-(2-((1-(2,2-difluoroethyl)-5-methyl-1H-pyrazol-4-yl)sulfonyl)-2,6 dihydropyrrolo[3,4-c]pyrazol-5(4H)-yl)-2-(2-fluorophenyl)-3-hydroxypropan-1-one]
–	35%	22 nM	–	O=C([C@H](CO)c1ccccc1)N1Cc2cn(S(=O)(=O)c3csc(C(F)(F)F)c3)nc2C1 [Compound 117, (2S)-3-hydroxy-2-phenyl-1-(2-{[5-(trifluoromethyl)thiophen-3-yl]sulfonyl}-2H,4H,5H,6H-pyrrolo[3,4-c]pyrazol-5-yl)propan-1-one]
54 nM	58%	–	–	CCOc1ncc(S(=O)(=O)n2cc3c(n2)CN(C(=O)[C@H](CO)c2ccccc2)C3)s1 [Compound 119, (2S)-1-{2-[(2-ethoxy-1,3-thiazol-5-yl)sulfonyl]-2H,4H,5H,6H-pyrrolo[3,4-c]pyrazol-5-yl}-3-hydroxy-2-phenylpropan-1-one]
3 nM	126%	–	–	O=C([C@H](CO)c1ccccc1Cl)N1Cc2cn(S(=O)(=O)c3cnn(CC(F)F)c3)nc2C1 [Compound 9, (2S)-2-(2-chlorophenyl)-1-[2-[1-(2,2-difluoroethyl)pyrazol-4-ylsulfonyl]-4H,6H-pyrrolo[3,4-c]pyrazol-5-yl]-3-hydroxypropan-1-one]
22 nM	62%	–	–	O=C([C@H](O)c1ccccc1)N1Cc2cn(S(=O)(=O)c3cnn(CC(F)F)c3)nc2C1 [Compound 4, (2R)-1-(2-{[1-(2,2-difluoroethyl)-1H-pyrazol-4-yl]sulfonyl}-2H,4H,5H,6H-pyrrolo[3,4-c]pyrazol-5-yl)-2-hydroxy-2-phenylethan-1-one]
500 nM	62%	–	–	Cc1cn(CC(F)F)nc1S(=O)(=O)n1cc2c(n1)CN(C(=O)[C@@H](CO)c1ccccc1Cl)C2 [Compound 81, (2R)-2-(2-chlorophenyl)-1-{2-[1-(2,2-difluoroethyl)-4-methylpyrazol-3-ylsulfonyl]-4H,6H-pyrrolo[3,4-c]pyrazol-5-yl}-3-hydroxypropan-1-one]
–	174%	3100 nM	–	CCn1ncc(S(=O)(=O)n2cc3c(n2)CN(C(=O)[C@@H](CO)c2ccccc2)C3)c1C(F)(F)F [Compound 112, (2R)-1-{2-[1-ethyl-5-(trifluoromethyl)pyrazol-4-ylsulfonyl]-4H,6H-pyrrolo[3,4-c]pyrazol-5-yl}-3-hydroxy-2-phenylpropan-1-one]
–	85%	23 nM	–	O=C([C@H](O)c1ccccc1F)N1Cc2cn(S(=O)(=O)c3cnn(CC(F)F)c3)nc2C1 [Compound 36, (2R)-1-[2-[1-(2,2-difluoroethyl)pyrazol-4-ylsulfonyl]-4H,6H-pyrrolo[3,4-c]pyrazol-5-yl]-2-(2-fluorophenyl)-2-hydroxyethanone]
–	100%	12 nM	–	O=C(N1Cc2cn(S(=O)(=O)c3ccn(CC(F)F)n3)nc2C1)C1(c2ncccc2Cl)COC1 [Compound 64, 3-chloro-2-(3-{2-[1-(2,2-difluoroethyl)pyrazol-3-ylsulfonyl]-4H,6H-pyrrolo[3,4-c]pyrazole-5-carbonyl}oxetan-3-yl)pyridine]
–	134%	320 nM	–	COC(C(=O)N1Cc2cn(S(=O)(=O)c3cnn(CC(F)F)c3)nc2C1)c1ccccc1F (centres unmarked) [Compound 114]
–	126%	960 nM	–	O=C([C@@H](O)c1ccccc1F)N1Cc2cn(S(=O)(=O)c3cnn(CC(F)F)c3)nc2C1 [Compound 37, (2S)-1-[2-[1-(2,2-difluoroethyl)pyrazol-4-ylsulfonyl]-4H,6H-pyrrolo[3,4-c]pyrazol-5-yl]-2-(2-fluorophenyl)-2-hydroxyethanone]
–	85%	3400 nM	–	O=C([C@H](O)c1ncccc1F)N1Cc2cn(S(=O)(=O)c3ccn(CC(F)F)n3)nc2C1 (single isomer, unassigned) [Compound 28]
150 nM	191%	–	–	O=C([C@@H](CO)c1ccccc1Cl)N1Cc2cn(S(=O)(=O)c3cnn(CC(F)F)c3)nc2C1 [Compound 46, (R)-2-(2-chlorophenyl)-1-(2-((1-(2,2-difluoroethyl)-1H-pyrazol-4-yl)sulfonyl)-2,6-dihydropyrrolo[3,4-c]pyrazol-5(4H)-yl)-3-hydroxypropan-1-one]

Source: patent publication US11566030B2, “Substituted 2,6-dihydropyrrolo[3,4-c]pyrazoles as pyruvate kinase activators” (priority 2021, dated 2023)
